Data reported in patent US4282245A, “Dibenzothiepin derivatives and a process for producing the same” (Nippon Chemiphar Co., Ltd., priority 1978, dated 1981).
Where two headings read alike, the source gives them in different places.

Test system: edema in the hind paws (carrageenan)
Test: carrageenan-induced hind paw edema in rats, oral administration (antiinflammatory effect)
Type: in vivo, Male Wistar rats
Conditions: for inhibition in vivo at 2 mg/kg: Rattus norvegicus, read-out: Inhibition (%) (after 3 hours); for Rate to Indomethacin: relative to Indomethacin = 1.00
Method: Male Wistar rats each weighing about 100 g, one group consisting of 5 to 7 animals, were orally given the compounds of the present invention and Indomethacin as a contrast, and edema was then induced in the hind paws by subcutaneous injection of 0.1 ml of 1% carrageenan one hour after the administration of the test compounds. Thereafter, the volumes of the hind paws with a predetermined lapse of time were measured by a volume differential meter.

[1] = oral, 2 mg/kg, after 3 hours, carrageenan hind paw edema, male Wistar rats
[2] = oral, 2 mg/kg, carrageenan hind paw edema, male Wistar rats

COc1ccc2c(c1)CC(=O)c1cc(C(C)C(N)=O)ccc1S2 (stereo not drawn) [Compound 1, 2(10,11-dihydro-8-methoxy-11-oxodibenzo[b,f]thiepin2-yl)-propionamide]
inhibition in vivo at 2 mg/kg [1]: 67.8% | Rate to Indomethacin [2]: 5.2

COc1ccc2c(c1)CC(=O)c1cc(C(C)C(=O)O)ccc1S2 (stereo not drawn) [Compound 2, 2(10,11-dihydro-8-methoxy-11-oxodibenzo[b,f]thiepin2-yl)-propionic acid]
inhibition in vivo at 2 mg/kg [1]: 48.2% | Rate to Indomethacin [2]: 1.9

CCOc1ccc2c(c1)CC(=O)c1cc(C(C)C(N)=O)ccc1S2 (stereo not drawn) [Compound 3, 2(10,11-dihydro-8-ethoxy-11-oxodibenzo[b,f]thiepin2-yl)-propionamide]
inhibition in vivo at 2 mg/kg [1]: 40.4% | Rate to Indomethacin [2]: 1.2

CC(C(N)=O)c1ccc2c(c1)C(=O)Cc1cc(Cl)ccc1S2 (stereo not drawn) [Compound 4, 2(8-chloro-10,11-dihydro-11-oxodibenzo[b,f]thiepin2-yl)-propionamide]
inhibition in vivo at 2 mg/kg [1]: 46.8% | Rate to Indomethacin [2]: 1.4

CC(C(=O)O)c1ccc2c(c1)C(=O)Cc1cc(Cl)ccc1S2 (stereo not drawn) [Compound 5, 2(8-chloro-10,11-dihydro-11-oxodibenzo[b,f]thiepin2-yl)-propionic acid]
inhibition in vivo at 2 mg/kg [1]: 61.6% | Rate to Indomethacin [2]: 2.7

CC(C(N)=O)c1ccc2c(c1)C(=O)Cc1cc(F)ccc1S2 (stereo not drawn) [Compound 6, 2(10,11-dihydro-8-fluoro-11-oxodibenzo[b,f]thiepin2-yl)-propionamide]
inhibition in vivo at 2 mg/kg [1]: 58.4% | Rate to Indomethacin [2]: 2.29

CC(C(=O)O)c1ccc2c(c1)C(=O)Cc1cc(F)ccc1S2 (stereo not drawn) [Compound 7, 2(10,11-dihydro-8-fluoro-11-oxodibenzo[b,f]thiepin2-yl)-propionic acid]
inhibition in vivo at 2 mg/kg [1]: 66.8% | Rate to Indomethacin [2]: 4.56

CC(C(N)=O)c1ccc2c(c1)C(=O)Cc1ccc(F)cc1S2 (stereo not drawn) [Compound 8, 2(10,11-dihydro-7-fluoro-11-oxodibenzo[b,f]thiepin2-yl)-propionamide]
inhibition in vivo at 2 mg/kg [1]: 41.9% | Rate to Indomethacin [2]: 1.45

COc1ccc2c(c1)c(CC(=O)O)c(C)n2C(=O)c1ccc(Cl)cc1 [Indomethacin, reference compound]
inhibition in vivo at 2 mg/kg (po, 3 h): 34.5% | Rate to Indomethacin [2]: 1.00
